Converted amounts (≈) assume the structure as drawn. Where a name gives a salt, the structure may show the parent alone. Read-outs that look alike come from different tables or passages of the source. Blank lines part the entries; values can stand above or below the compound they belong to.
How the values were obtained:
[1] = system: A549 (ATCC CCL 185): human lung carcinoma; assay: In vitro antitumor activity, MTT assay, A549; type: cell-based; conditions: for IC50: Homo sapiens, A549, 48 h
Procedure, shortened: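 A549 cells in RPMI 1640 with 10% FBS, 10,000 cells/well, pre-cultured 24 hrs, then exposed 48 hrs at 37° C to compound at 20 to 0.00128 μg/ml final (5-fold steps, DMSO below 0.5%). MTT added for 4 hrs, formazan dissolved in DMSO and read at 540nm; IC50 by linear regression of % of control.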

[2] = system: K562 (ATCC CCL 243): human chronic myelogenous leukemia; assay: In vitro antitumor activity, MTT assay, K562; type: cell-based; conditions: for IC50: Homo sapiens, K562, 48 h
Procedure, shortened: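 K562 cells (10,000/well) pre-cultured 24 hrs, then exposed 48 hrs at 37° C. to serially 5-fold diluted compound, final 20 μg/ml to 0.00128 μg/ml, DMSO below 0.5%. MTT added 4 hrs; formazan dissolved in DMSO, A540 read. Cytotoxicity as test/control absorbance; IC50 by linear regression.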

[3] = system: SK-OV-3 (ATCC HTB 77): human ovarian adenocarcinoma; assay: In vitro antitumor activity, MTT assay, SK-OV-3; type: cell-based; conditions: for IC50: Homo sapiens
Procedure, shortened: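 Cells seeded at 10,000 per well, grown 24 h, then exposed 48 h at 37 °C to compound at final 20 to 0.00128 μg/ml (5-fold dilutions, DMSO below 0.5%). MTT added for 4 h, formazan dissolved in DMSO, absorbance read at 540 nm; IC50 estimated by linear regression.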

[4] = system: Colo205 (ATCC CCL 222): human colon adenocarcinoma; assay: In vitro antitumor activity, MTT assay, Colo205; type: cell-based; conditions: for IC50: Homo sapiens
Procedure, shortened: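 Colo205 cells in RPMI 1640/10% FBS were exposed 48 h at 37 °C to 5-fold serial dilutions, final 20 to 0.00128 µg/ml, DMSO below 0.5%. MTT added for 4 h, formazan dissolved in DMSO, A540 read versus medium control; IC50 by linear regression.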

[5] = system: KB (ATCC CCL 17): human epidermoid carcinoma; assay: In vitro antitumor activity, MTT assay, KB; type: cell-based; conditions: Homo sapiens, read-out: IC50 (KB)
Method: In vitro antitumor activity against human tumor cell lines
In vitro antitumor activity of the compounds according to the present invention was determined by MTT assay method against the following human tumor cell lines:
KB (ATCC CCL 17): human epidermoid carcinoma
In this test, the known antineoplastic compounds, Doxorubicin and Sulofenur, were used as the comparative agents.
Each of the tumor cells was cultured in RPMI 1640 media containing 10% fetal bovine serum, 100 IU/ml penicillin and 100 μg/ml streptomycin, and then periodically subcultured once or twice per week in trypsin-EDTA solution containing 0.05% trypsin and 0.53mM EDTA.4Na. The human tumor cell line thus obtained (10,000cells/100 μl) was plated on 96-well microplate and then cultured for 24 hrs at 37° C. in a 5% CO2 incubator. Test compound was dissolved in DMSO, sterilized with 0.22 μm PVDF filter, and then serially 5-fold diluted from 40 μg/ml to 0.00256μg/ml. 100 μl of the sample solution thus prepared and RPMI 1640 medium only (control group) were added to 96-well microplate containing the human tumor cell, respectively. The final concentration of the test compound was in the range from 20 μg/ml to 0.00128 μg/ml and the concentration of DMSO was below 0.5%. The cells were cultured for 48 hrs at 37° C. in a 5% CO2 incubator. MTT(3-(4,5-Dimethylthiazole-2-yl)-e,5-diphenyltetrazoliumbromide) was dissolved in physiological saline in a concentration of 2 mg/ml and the resulting solution was filtered through 0.22 μm PTFE filter. 25 μl of MTT solution thus prepared was added to each well of 96-well microplate and incubated for additional 4 hrs at 37° C. in a 5% CO2 incubator. Then, the content of microplate was centrifuged at 1000 rpm for 10 min, and supernatant was removed by flicking. The formazan formed from MTT by mitochondrial succinate dehydrogenase was dissolved in 100 μl of DMSO. The absorbance of each well was measured at 540nm by micro ELISA reader and the cytotoxicity was calculated by dividing the absorbance of test group by the absorbance of control group. After the calculated cytotoxicity (%) was plotted, the concentration of 50% tumor growth inhibition concentration (IC50) was estimated by Linear-Regression method.

[6] = system: P388 murine leukemia cells; assay: In vivo antitumor activity against P388 murine leukemia cell; design: species or system BDF1 mouse; conditions: once per 2 days for 10 days, median survival time
Method: In vivo antitumor activity against P388 murine leukemia cell
P388 murine leukemia cells were injected into BDF1 mouse intraperitoneally and grown in the peritoneal cavity. The P388 cells were periodically exudated and reinjected intraperitoneally into mouse for subculture.
The cells were exudated, washed, resuspended in saline (2×10^7 cells/ml), and then injected intraperitoneally again into BDF1 mouse (2×10^6 cells/0.1 ml).
Test compound dissolved in appropriate vehicle was administered intraperitonealy or orally into the mouse which was implanted with P388 murine leukemia tumor cells in the frequency of once per 2 days for 10 days. The vehicle was administered into the mouse of control group. Then, the number of live animals were daily checked to estimate the median survival time (MST).
T/C ratio(%) of each test compound was calculated according to the following formula, and the test results are shown in Table 6.
T/C(%)=(MST of test group.div.MST of control group)×100

[7] = system: Colon 26 murine colon cancer cell; assay: In vivo antitumor activity against Colon 26 murine colon cancer cell; design: species or system Balb/C mouse; conditions: 65 mg/kg p.o., once per 2 days for 10 days; tumor weight
Method: In vivo antitumor activity against Colon 26 murine colon cancer cell
Colon 26 murine cancer cells were injected into Balb/C mouse intradermally and grown in mouse abdominal skin to a solid tumor. The Colon 26 tumors were periodically excised from the mouse, digested with an enzyme mixture containing collagenase and DNase, and then intradermally reinjected into mouse for subculture.
The cells were washed, resuspended in saline (5×10^6 cells/ml) and inoculated (5×10^5 cells/0.1 ml) intradermally to abdominal part of Balb/C mouse of which hair was removed in advance. Each test compound was dissolved in a solvent mixture of 60% propylene glycol(PG), 40% cremophor RH60(CP), and distilled water(DW) in the volume ratio of 30:20:50. When the size of tumor reached at appropriate level, the test compound was administered orally into the mouse which was implanted with colon 26 tumor cells in the frequency of once per 2 days for 10 days. The vehicle was also administered into the mouse of control group. The major and minor axis of tumor in each group were regularly measured by vernier calipers to estimate the increase of the tumor volume. Tumor volume was calculated on the basis of the following formula
Tumor volume(mm^3)=(1/2)×[length of major axis(mm)]×[length
When the tumor volume of the control group reached at about 1500 mm^3, the test animals were sacrificed by cervical dislocation and tumor was carefully excised and weighed. The inhibition rate of tumor growth (%) of each test compound was calculated as follows: […]
group.div.Tumor weight of control group)]

[8] = COLO 205, Table 2, 48 hrs, read-out: IC50 (Colo205)
[9] = COLO 205, Table 3, 48 hrs, read-out: IC50 (Col205)

SMILES: COc1cccc2c1C(=O)c1c(O)c3c(c(O)c1C2=O)C[C@@](O)(C(=O)CO)C[C@@H]3O[C@H]1C[C@H](N)[C@H](O)[C@H](C)O1 [Doxorubicin, reference compound]
- IC50 ([1]; Table 1): 0.742 µg/mL (≈ 1.37 µM)
- IC50 ([1]; Table 3): 0.67 µg/mL (≈ 1.23 µM)
- IC50 ([1]; Table 4): 1.08 µg/mL (≈ 1.99 µM)
- IC50 ([1]; Table 5): 1.68 µg/mL (≈ 3.09 µM)
- IC50 ([2]; read-out: IC50 (K562), Table 3): 0.276 µg/mL (≈ 0.508 µM)
- IC50 ([2]; read-out: IC50 (K562), Table 4): 0.962 µg/mL (≈ 1.77 µM)
- IC50 ([2]; read-out: IC50 (K562), Table 5): 0.78 µg/mL (≈ 1.44 µM)
- IC50 ([3]; SK-OV-3, 48 h, Table 1): 2.25 µg/mL (≈ 4.15 µM)
- IC50 ([3]; SK-OV-3, 48 h, Table 3): 1.31 µg/mL (≈ 2.42 µM)
- IC50 ([3]; SK-OV-3, 48 h, Table 4): 2.25 µg/mL (≈ 4.15 µM)
- IC50 ([3]; SK-OV-3, 48 h, Table 5): 1.6 µg/mL (≈ 2.94 µM)
- IC50 ([4]; COLO 205, 48 h, read-out: IC50 (Col205), Table 3): 6.3 µg/mL (≈ 11.6 µM)
- IC50 ([4]; COLO 205, 48 h, read-out: IC50 (Colo205), Table 1): 0.973 µg/mL (≈ 1.79 µM)
- IC50 ([4]; COLO 205, 48 h, read-out: IC50 (Colo205), Table 5): 0.961 µg/mL (≈ 1.77 µM)
- IC50 ([5]; 48 h): 0.914 µg/mL (≈ 1.68 µM)

- IC50 ([1]; Table 1): 0.321 µg/mL
- IC50 ([3]; SK-OV-3, Table 1, 48 hrs): 0.509 µg/mL
- IC50 ([4]; COLO 205, Table 1, 48 hrs, read-out: IC50 (Colo205)): 0.861 µg/mL
- IC50 ([5]; Table 1, MTT, 48 hrs): 0.072 µg/mL
SMILES: CC1Cc2cc(S(=O)(=O)n3cc(-c4ccccc4)[nH]c3=O)ccc2N1C(=O)c1ccc(N)cc1 (stereo not drawn) [Example 12, 4-phenyl-1-[N-(4-aminobenzoyl)-2-methylindoline-5-sulfonyl]-2-imidazolone.HCl]
- T/C rate (%) ([6]; 65 mg/kg p.o.): 115.4%

- IC50 ([1]; Table 2): 3.23 µg/mL
- IC50 ([3]; SK-OV-3, Table 2, 48 hrs): 1.4 µg/mL
- IC50 [4, 8]: 3.07 µg/mL
- IC50 ([5]; Table 2, MTT, 48 hrs): 0.246 µg/mL
SMILES: CC(C)CNCC(=O)N1c2ccc(S(=O)(=O)n3cc(-c4ccccc4)[nH]c3=O)cc2CC1C (stereo not drawn) [Example 25, 4-phenyl-1-(N-isobutylaminoacetyl-2-methylindoline-5-sulfonyl)-2-imidazolone.HCl]

- IC50 ([1]; Table 2): 5.47 µg/mL
- IC50 ([3]; SK-OV-3, Table 2, 48 hrs): 10.1 µg/mL
- IC50 [4, 8]: 9.09 µg/mL
- IC50 ([5]; Table 2, MTT, 48 hrs): 1.99 µg/mL
SMILES: CC(C)CNCC(=O)N1CCc2cc(S(=O)(=O)n3cc(-c4ccccc4)[nH]c3=O)ccc21 [Example 26, 4-phenyl-1-(N-isobutylaminoacetylindoline-5-sulfonyl)-2-imidazolone.HCl]

- IC50 ([1]; Table 2): 1.45 µg/mL
- IC50 ([3]; SK-OV-3, Table 2, 48 hrs): 2.44 µg/mL
- IC50 [4, 8]: 5.68 µg/mL
- IC50 ([5]; Table 2, MTT, 48 hrs): 0.317 µg/mL
SMILES: CC1Cc2cc(S(=O)(=O)n3cc(-c4ccccc4)[nH]c3=O)ccc2N1C(=O)CNC(C)(C)C (stereo not drawn) [Example 27, 4-phenyl-1-(N-t-butylaminoacetyl-2-methylindoline-5-sulfonyl)-2-imidazolone.HCl]

- IC50 ([1]; Table 2): 0.604 µg/mL
- IC50 ([3]; SK-OV-3, Table 2, 48 hrs): 1.52 µg/mL
- IC50 [4, 8]: 1.05 µg/mL
- IC50 ([5]; Table 2, MTT, 48 hrs): 1.12 µg/mL
SMILES: C=CCNCC(=O)N1c2ccc(S(=O)(=O)n3cc(-c4ccccc4)[nH]c3=O)cc2CC1C (stereo not drawn) [Example 28, 4-phenyl-1-(N-allylaminoacetyl-2-methylindoline-5-sulfonyl)-2-imidazolone.HCl]

- IC50 ([1]; Table 3): 0.318 µg/mL (≈ 0.767 µM)
- IC50 ([2]; Table 3, read-out: IC50 (K562)): 1 µg/mL (≈ 2.42 µM)
- IC50 ([3]; SK-OV-3, Table 3, 48 hrs): 1.95 µg/mL (≈ 4.7 µM)
- IC50 [4, 9]: 1 µg/mL (≈ 2.42 µM)
SMILES: CCNC(=O)N1CCc2cc(S(=O)(=O)N3CC(c4ccccc4)NC3=O)ccc21 (stereo not drawn) [Example 29, 4-phenyl-1-(N-ethylcarbamoylindoline-5-sulfonyl)4,5-dihydro-2-imidazolone]
- T/C rate (%) ([6]; 6.25 mg/kg i.p.): 113.6%

- IC50 ([1]; Table 3): 0.178 µg/mL (≈ 0.385 µM)
- IC50 ([2]; Table 3, read-out: IC50 (K562)): < 0.0064 µg/mL
- IC50 ([3]; SK-OV-3, Table 3, 48 hrs): 0.16 µg/mL (≈ 0.346 µM)
- IC50 [4, 9]: 1.26 µg/mL (≈ 2.72 µM)
SMILES: O=C(Nc1ccccc1)N1CCc2cc(S(=O)(=O)N3CC(c4ccccc4)NC3=O)ccc21 (stereo not drawn) [Example 34, 4-phenyl-1-(N-phenylcarbamoylindoline-5-sulfonyl)-4,5-dihydro-2-imidazolone]
- T/C rate (%) ([6]; 6.25 mg/kg i.p.): 140.9%

- IC50 ([1]; Table 5): 0.105 µg/mL
- IC50 ([2]; Table 5, read-out: IC50 (K562)): 0.829 µg/mL
- IC50 ([3]; SK-OV-3, Table 5, 48 hrs): 0.062 µg/mL
- IC50 ([4]; COLO 205, Table 5, 48 hrs, read-out: IC50 (Colo205)): 0.268 µg/mL
SMILES: Nc1ccc(C(=O)N2CCc3cc(S(=O)(=O)N4C[C@H](c5ccccc5)NC4=O)ccc32)cc1 [Example 65, (S)-(+)-4-phenyl-1-[N-(4-aminobenzoyl)indoline-5-sulfonyl]-4,5-dihydro-2-imidazolone.HCl]
- Inhibition rate of tumor growth (%) [7]: 69.2%
- T/C rate (%) ([6]; 65 mg/kg p.o.): 138.5%

SMILES: Cl.NC(Cc1ccccc1)C(=O)Nc1ccc(C(=O)N2CCc3cc(S(=O)(=O)N4C[C@H](c5ccccc5)NC4=O)ccc32)cc1 (stereo partly drawn) [Example 68, (S)-(-)-4-phenyl-1-[N-{4-(2-amino-3-phenyl-propanoyl)aminobenzoyl}indoline-5-sulfonyl]-4,5-dihydro-2-imidazolone.HCl]
- IC50 (A549) ([1]; Table 5, 48 hrs): 0.083 µg/mL
- IC50 (K562) ([2]; Table 5, 48 hrs): 0.561 µg/mL
- IC50 (SK-OV-3) ([3]; Table 5, 48 hrs): 0.137 µg/mL
- IC50 (Colo205) ([4]; Table 5, 48 hrs): 0.598 µg/mL
- Inhibition rate of tumor growth (%) [7]: 45.3%

— patent US5932742A, “Arylsulfonylimidazolone derivatives as an antitumor agent” (priority 1996, dated 1999)
